Laboratory results reported in paper PMC7699256, “In Silico Analysis and In Vitro Characterization of the Bioactive Profile of Three Novel Peptides Identified from 19 kDa α-Zein Sequences of Maize” (Molecules, 2020).
Like-named read-outs stand apart in the source and are kept apart here. No end group written: not given here.

Target: T1, angiotensin-converting enzyme (ACE) (Homo sapiens, UniProt P12821)
T1 construct: purchased Sigma-Aldrich CS0002
Test: ACE inhibition assay (ACE Activity Assay kit, fluorogenic substrate)
Assay type: biochemical
Experimental: ACE inhibitory activity was evaluated using the ACE Activity Assay test (Sigma-Aldrich CS0002, Saint Louis, MI, USA). This assay is based on the hydrolysis of angiotensin I by ACE to yield active angiotensin II. This test uses a synthetic fluorogenic peptide as the substrate, and the resulting fluorescence is proportional to ACE activity. Briefly, all reagents were diluted in the assay buffer, according to the manufacturer’s instructions. A total of 10 µL of peptide sample and positive control (captopril PHR1307, Sigma-Aldrich, Saint Louis, MI, USA), diluted in assay buffer at five different concentrations, and negative control (assay buffer) were pipetted into the wells of a 96-well black opaque plate. Then, 40 µL of ACE, provided in the kit, was added to sample and control wells. Sample blanks consisted of 50 µL of assay buffer. A standard curve was prepared in 100 µL assay buffer per well ranging from 0 to 8 nmol for calculating enzymatic activity. Subsequently, 50 µL of fluorogenic substrate warmed to 37 °C was added to experimental, control and blank sample wells. The reaction was carried out at 37 °C and fluorescence was read every minute for 5 min in a microplate reader (Biotek Synergy HTX, Winooski, VT, USA). The absorbance of excitation and emission were set at 320 nm and 405 nm, respectively. All determinations were done in duplicate. Linear regressions were determined to calculate the enzymatic activity for each sample dose.
One unit is defined as the amount of enzyme that releases one nmol of fluorescent substrate in 1 min at 37 °C. The results were expressed as milliunits of enzyme (mU). Finally, the IC50 of each peptide sample and captopril was determined using regression analysis of the corresponding dose–response curves. […] This value was expressed as µM.

[1] = fluorogenic substrate, 37 °C, fluorescence (ex 320/em 405 nm) every minute for 5 min, five concentrations, value ± SD, n = 2, read-out: IC50 for ACE inhibition
[2] = own IC50 values converted to mg/mL for comparison with the literature, read-out: IC50 for ACE inhibition expressed in mg/mL (converted)

T1 sequence (P12821 30-1306, species assumed): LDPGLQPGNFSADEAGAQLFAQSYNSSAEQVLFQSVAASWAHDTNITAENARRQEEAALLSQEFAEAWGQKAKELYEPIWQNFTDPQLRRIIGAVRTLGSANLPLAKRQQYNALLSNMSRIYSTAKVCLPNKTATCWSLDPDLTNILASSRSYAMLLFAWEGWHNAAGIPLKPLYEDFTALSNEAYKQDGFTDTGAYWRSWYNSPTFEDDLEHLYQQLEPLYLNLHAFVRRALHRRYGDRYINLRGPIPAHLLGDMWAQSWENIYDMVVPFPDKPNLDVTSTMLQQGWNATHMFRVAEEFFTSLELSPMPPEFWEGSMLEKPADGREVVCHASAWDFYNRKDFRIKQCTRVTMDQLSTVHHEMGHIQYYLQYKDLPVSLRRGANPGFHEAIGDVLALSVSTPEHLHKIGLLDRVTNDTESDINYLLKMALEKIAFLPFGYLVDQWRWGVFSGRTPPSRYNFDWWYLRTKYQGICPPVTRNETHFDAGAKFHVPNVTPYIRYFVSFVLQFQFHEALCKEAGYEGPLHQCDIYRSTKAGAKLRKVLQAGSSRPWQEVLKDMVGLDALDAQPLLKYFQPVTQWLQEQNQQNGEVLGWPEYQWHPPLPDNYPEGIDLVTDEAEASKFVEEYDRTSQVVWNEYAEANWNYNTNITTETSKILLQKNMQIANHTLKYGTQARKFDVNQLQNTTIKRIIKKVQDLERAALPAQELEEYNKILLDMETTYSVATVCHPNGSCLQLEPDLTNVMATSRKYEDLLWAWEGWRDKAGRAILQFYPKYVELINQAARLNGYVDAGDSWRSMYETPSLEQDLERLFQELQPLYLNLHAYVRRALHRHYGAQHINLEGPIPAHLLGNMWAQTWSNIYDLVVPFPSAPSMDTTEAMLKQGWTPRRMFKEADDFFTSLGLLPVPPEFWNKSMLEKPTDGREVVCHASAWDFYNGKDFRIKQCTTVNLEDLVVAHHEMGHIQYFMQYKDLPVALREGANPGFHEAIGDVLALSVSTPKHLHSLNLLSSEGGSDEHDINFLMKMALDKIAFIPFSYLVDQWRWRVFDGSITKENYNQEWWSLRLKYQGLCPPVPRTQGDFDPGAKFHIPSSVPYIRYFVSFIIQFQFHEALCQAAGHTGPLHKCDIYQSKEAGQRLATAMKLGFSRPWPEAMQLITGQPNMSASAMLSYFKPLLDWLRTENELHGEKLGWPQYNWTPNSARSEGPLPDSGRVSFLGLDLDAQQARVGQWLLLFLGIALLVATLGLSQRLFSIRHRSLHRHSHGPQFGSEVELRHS

QLADVSPAAFLTQQQLLPFYLHAM-NH2 [19ZP2]
IC50 [1]: 174 ± 49.6 µM | IC50 [2]: 174 µM

FNQLAALNSAAYLQQQQLLPFSQLA-NH2 [19ZP1]
IC50 [1]: 14.19 ± 0.12 µM | IC50 [2]: 14.4 µM

AYLQAQQLLPFNQLVRSPAA-NH2 [19ZP3]
IC50 [1]: 202 ± 0.63 µM | IC50 [2]: 202 µM
